Where two headings read alike, the source gives them in different places. One block for each compound: values may come before it.
How the values were obtained:
Format in all cases: biochemical
[1] = biological target: T1, MMP-1 (Homo sapiens, UniProt P03956); test: MMP-1 inhibition (thiopeptide or fluorescent peptide substrate)
T1 sequence (P03956 100-469): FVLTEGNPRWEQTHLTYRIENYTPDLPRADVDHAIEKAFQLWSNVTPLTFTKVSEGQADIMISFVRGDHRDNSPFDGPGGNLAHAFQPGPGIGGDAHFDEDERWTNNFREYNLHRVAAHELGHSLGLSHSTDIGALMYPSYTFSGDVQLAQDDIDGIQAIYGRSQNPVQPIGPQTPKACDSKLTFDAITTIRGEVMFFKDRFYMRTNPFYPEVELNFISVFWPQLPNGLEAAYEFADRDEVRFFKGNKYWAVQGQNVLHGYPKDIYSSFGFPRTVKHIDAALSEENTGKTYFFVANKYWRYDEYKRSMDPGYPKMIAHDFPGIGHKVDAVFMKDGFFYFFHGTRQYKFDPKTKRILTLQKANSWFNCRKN

[2] = biological target: MMP-13 (Homo sapiens, UniProt P45452); test: MMP-13 inhibition (thiopeptide or fluorescent peptide substrate); conditions: read-out: MMP-13 IC50
[3] = biological target: TNF-α converting enzyme (TACE) (Homo sapiens, UniProt P78536); test: TACE inhibition (fluorescent peptidyl substrate)
Sequence of TNF-α converting enzyme (TACE) (P78536 215-824, species assumed): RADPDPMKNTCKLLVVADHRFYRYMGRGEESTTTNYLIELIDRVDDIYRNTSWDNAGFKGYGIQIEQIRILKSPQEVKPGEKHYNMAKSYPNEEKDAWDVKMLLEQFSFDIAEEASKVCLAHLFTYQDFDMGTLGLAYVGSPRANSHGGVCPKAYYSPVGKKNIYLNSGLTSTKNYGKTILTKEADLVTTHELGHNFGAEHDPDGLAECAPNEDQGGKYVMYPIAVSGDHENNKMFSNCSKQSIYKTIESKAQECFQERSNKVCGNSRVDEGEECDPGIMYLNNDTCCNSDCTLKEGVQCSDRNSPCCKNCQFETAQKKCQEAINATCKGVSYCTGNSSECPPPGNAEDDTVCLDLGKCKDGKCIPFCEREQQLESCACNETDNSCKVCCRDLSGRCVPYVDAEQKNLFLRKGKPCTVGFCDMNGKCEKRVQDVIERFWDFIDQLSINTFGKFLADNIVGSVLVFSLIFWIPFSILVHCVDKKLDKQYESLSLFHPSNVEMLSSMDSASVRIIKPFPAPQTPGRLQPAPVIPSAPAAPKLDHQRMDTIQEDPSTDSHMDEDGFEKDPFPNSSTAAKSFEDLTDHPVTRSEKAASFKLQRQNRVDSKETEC

[4] = IC 50 nM (In Vitro Inhibition of TACE), Table 15
[5] = read-out: IC 50 nM (In Vitro Inhibition of TACE), Table 15

IC50 ([1]; read-out: MMP-1 IC50): 40 nM | IC50 [2]: 4.5 nM | IC50 ([3]; read-out: TACE IC50): 7.4 nM
Compound: CC#CCOc1ccc(S(=O)(=O)N(C)C(C(=O)NO)C(C)C)cc1 (stereo not drawn) [Example 9, 2-[(4-but-2-ynyloxy-Benzenesulfonyl)-methyl-amino]-N-hydroxy-3-methyl-butyramide]

IC50 [2]: 4.8 nM
Compound: CC#CCOc1ccc(S(=O)(=O)N(C)C(CSCc2cccnc2)C(=O)NO)cc1 (stereo not drawn) [Example 155, 2-[(4-but-2-ynyloxy-Benenesulfonyl)-methyl-amino]-N-hydroxy-3-(pyridin-3-ylmethylsulfanyl)-butyramide]

IC50 ([1]; read-out: MMP-1 IC50): 20 nM | IC50 [2]: 16 nM | IC50 ([3]; read-out: TACE IC50): 111 nM
Compound: CC#CCOc1ccc(S(=O)(=O)N2CCCSC(C)(C)[C@@H]2C(=O)NO)cc1 [Example 173]

IC50 ([1]; read-out: MMP-1 IC50): 408 nM | IC50 [2]: 36 nM | IC50 ([3]; read-out: TACE IC50): 20 nM
Compound: CC#CCOc1ccc(S(=O)(=O)N2CCCSC[C@@H]2C(=O)NO)cc1 [Example 174]

IC50 ([1]; read-out: MMP-1 IC50): 1030 nM | IC50 [2]: 50 nM | IC50 ([3]; read-out: TACE IC50): 28 nM
Compound: CC#CCOc1ccc(S(=O)(=O)N2CCCS(=O)(=O)C[C@@H]2C(=O)NO)cc1 [Example 175]

Compound: CC#CCOc1ccc(S(=O)(=O)NC(C(=O)NO)c2ccc(OCCNC)cc2)cc1 (stereo not drawn) [Example 204]
IC50 ([1]; MMP-1 IC50): ~10000 nM

IC50 ([1]; read-out: MMP-1 IC50): ~10000 nM | IC50 [2]: 146 nM | IC50 ([3]; read-out: TACE IC50): 24 nM
Compound: CC#CCOc1ccc(S(=O)(=O)NC(C(=O)NO)c2ccc(OCCN3CCCC3)cc2)cc1 (stereo not drawn) [Example 205, 2-({[4-(2-Butynyloxy)phenyl]sulfonyl}amino)-N-hydroxy-2-{4-[2-(1-pyrrolidinyl)ethoxy]phenyl}acetamide]

IC50 ([1]; read-out: MMP-1 IC50): > 10000 nM | IC50 [2]: 112 nM | IC50 ([3]; read-out: TACE IC50): 53 nM
Compound: CC#CCOc1ccc(S(=O)(=O)NC(C(=O)NO)c2ccc(OCCN(C)C)cc2)cc1 (stereo not drawn) [Example 207, 2-({[4-(2-Butynyloxy)phenyl]sulfonyl}amino){4-[2-(dimethylamino)ethoxy]phenyl}-N-hydroxyacetamide]

IC50 ([1]; read-out: MMP-1 IC50): > 10000 nM | IC50 [2]: 230 nM | IC50 ([3]; read-out: TACE IC50): 69 nM
Compound: CC#CCOc1ccc(S(=O)(=O)NC(C(=O)NO)c2ccc(OCCc3scnc3C)cc2)cc1 (stereo not drawn) [Example 208, 2-({[4-(2-Butynyloxy)phenyl]sulfonyl}amino)-N-hydroxy-2-{4-[2-(4-methyl-1,3-thiazol-5-yl)ethoxy]phenyl}acetamide]

IC50 ([1]; read-out: MMP-1 IC50): ~10000 nM | IC50 [2]: 132 nM | IC50 ([3]; read-out: TACE IC50): 39 nM
Compound: CC#CCOc1ccc(S(=O)(=O)NC(C(=O)NO)c2ccc(OCCOCCOCCOC)cc2)cc1 (stereo not drawn) [Example 209, 2-({[4-(2-Butynyloxy)phenyl]sulfonyl}amino)-N-hydroxy-2-(4-{2-[2-(2-methoxyethoxy)ethoxy]ethoxy}phenyl)acetamide]

IC50 ([1]; read-out: MMP-1 IC50): 92 nM | IC50 ([3]; read-out: TACE IC50): 74 nM
Compound: CC#CCOc1ccc(S(=O)(=O)N2CCN(C(=O)OC(C)(C)C)CCC2C(=O)NO)cc1 (stereo not drawn) [Example 291, tert-Butyl 4-{[4-(2-Butynyloxy)phenyl]sulfonyl}-5[(hydroxyamino)carbonyl]-1,4-diazepane-1-carboxylate]

IC50 [3, 4]: 9.36 nM
Compound: CC#CCOc1ccc(S(=O)(=O)N[C@H](CCCCNC(=O)c2cc(C)oc2C)C(=O)NO)cc1 [Example 356, N-[(5R)-5-({[4-(But-2-ynyloxy)phenyl]sulfonyl}amino)-6-(hydroxyamino)-6-oxohexyl]-2,5-dimethyl-3-furamide]

IC50 [3, 4]: 14.1 nM
Compound: CC#CCOc1ccc(S(=O)(=O)N[C@H](CCCCNC(=O)c2c(C)noc2C)C(=O)NO)cc1 [Example 357, N-[(5R)-5-({[4-(But-2-ynyloxy)phenyl]sulfonyl}amino)-6-(hydroxyamino)-6-oxohexyl]-3,5-dimethylisoxazole-4-carboxamide]

IC50 [3, 4]: 8.84 nM
Compound: CC#CCOc1ccc(S(=O)(=O)N[C@H](CCCCNC(=O)CCc2ccccc2)C(=O)NO)cc1 [Example 358, (2R)-2-({[4-(But-2-ynyloxy)phenyl]sulfonyl}amino)-N-hydroxy-6-[(3-phenylpropanoyl)amino]hexanamide]

IC50 [3, 4]: 9.28 nM
Compound: CC#CCOc1ccc(S(=O)(=O)N[C@H](CCCCNC(=O)c2ccncc2)C(=O)NO)cc1 [Example 359, N-[(5R)-5-({[4-(But-2-ynyloxy)phenyl]sulfonyl}amino)-6-(hydroxyamino)-6-oxohexyl]isonicotinamide]

IC50 [3, 4]: 4.97 nM
Compound: CC#CCOc1ccc(S(=O)(=O)N[C@H](CCCCNC(=O)c2ccccc2OC)C(=O)NO)cc1 [Example 360, N-[(5R)-5-({[4-(But-2-ynyloxy)phenyl]sulfonyl}amino)-6-(hydroxyamino)-6-oxohexyl]-2-methoxybenzamide]

IC50 [3, 4]: 6.32 nM
Compound: CC#CCOc1ccc(S(=O)(=O)N[C@H](CCCCNC(=O)c2ccc(OC)cc2)C(=O)NO)cc1 [Example 361, N-[(5R)-5-({[4-(But-2-ynyloxy)phenyl]sulfonyl}amino)-6-(hydroxyamino)-6-oxohexyl]-4-methoxybenzamide]

IC50 [3, 4]: 4.55 nM
Compound: CC#CCOc1ccc(S(=O)(=O)N[C@H](CCCCNC(=O)Cc2ccc([N+](=O)[O-])cc2)C(=O)NO)cc1 [Example 362, (2R)-2-({[4-(But-2-ynyloxy)phenyl]sulfonyl}amino)-N-hydroxy-6-{[2-(4-nitrophenyl)acetyl]amino}hexanamide]

IC50 [3, 4]: 3.39 nM
Compound: CC#CCOc1ccc(S(=O)(=O)N[C@H](CCCCNC(=O)Cc2ccccc2)C(=O)NO)cc1 [Example 363, (2R)-2-({[4-(But-2-ynyloxy)phenyl]sulfonyl}amino)-N-hydroxy-6-[(2-phenylacetyl)amino]hexanamide]

IC50 [3, 4]: 7.79 nM
Compound: CC#CCOc1ccc(S(=O)(=O)N[C@H](CCCCNC(=O)c2cnc3ccccc3c2)C(=O)NO)cc1 [Example 364, N-[(5R)-5-({[4-(But-2-ynyloxy)phenyl]sulfonyl}amino)-6-(hydroxyamino)-6-oxohexyl]quinoline-3-carboxamide]

IC50 [3, 4]: 14.6 nM
Compound: CC#CCOc1ccc(S(=O)(=O)N[C@H](CCCCNC(=O)c2ccsc2)C(=O)NO)cc1 [Example 365, N-[(5R)-5-({[4-(But-2-ynyloxy)phenyl]sulfonyl}amino)-6-(hydroxyamino)-6-oxohexyl]thiophene-3-carboxamide]

IC50 [3, 4]: 106 nM
Compound: CC#CCOc1ccc(S(=O)(=O)N[C@H](CCCCNC(=O)/C=C/c2ccccc2)C(=O)NO)cc1 [Example 366, (E)-N-[(5R)-5-({[4-(But-2-ynyloxy)phenyl]sulfonyl}amino)-6-(hydroxyamino)-6-oxohexyl]-3-phenylprop-2-enamide]

IC50 [3, 4]: 151 nM
Compound: CC#CCOc1ccc(S(=O)(=O)N[C@H](CCCNC(=O)c2cccs2)C(=O)NO)cc1 [Example 368, (4R)-4-({[4-(but-2-ynyloxy)Phenyl]sulfonyl}amino)-5-(hydroxyamino)-5-oxopentylithiophene-2-carboxamide]

IC50 [3, 4]: 14.2 nM
Compound: CC#CCOc1ccc(S(=O)(=O)N[C@H](CCCNC(=O)NCC)C(=O)NO)cc1 [Example 369]

IC50 [3, 4]: 2.4 nM
Compound: CC#CCOc1ccc(S(=O)(=O)N[C@H](CCCNC(=O)Nc2ccccc2)C(=O)NO)cc1 [Example 370, (2R)-5-[(Anilinocarbonyl)amino]-2-({[4-(but-2-ynyloxy)phenyl]sulfonyl}amino)-N-hydroxypentanamide]

IC50 [3, 4]: 377 nM
Compound: CC#CCOc1ccc(S(=O)(=O)N[C@H](CCCNC(=O)OCCCCCCCC)C(=O)NO)cc1 [Example 371, Octyl(4R)-4-({[4-(but-2-ynyloxy)phenyl]sulfonyl}amino)-5-(hydroxyamino)-5-oxopentylcarbamate]

Compound: CC#CCOc1ccc(S(=O)(=O)N[C@H](CCCNC(=O)Oc2ccc(OC)cc2)C(=O)NO)cc1 [Example 372, 4-Methoxyphenyl(4R)-4-({[4-(but-2-ynyloxy)phenyl]sulfonyl}amino)-5-(hydroxyamino)-5-oxopentylcarbamate]
IC50 [3, 5]: 8.4 nM

IC50 [3, 4]: 16.9 nM
Compound: CC#CCOc1ccc(S(=O)(=O)N[C@H](CCCNC(=O)N(CC)CC)C(=O)NO)cc1 [Example 373]

IC50 [3, 4]: 18.2 nM
Compound: CC#CCOc1ccc(S(=O)(=O)N[C@H](CCCNC(=O)N(C)c2ccccc2)C(=O)NO)cc1 [Example 374, (2R)-2-({[4-(but-2-ynyloxy)Phenyl]sulfonyl}amino)-N-hydroxy-5-{[(methylanilino)carbonyl]amino}pentanamide]

IC50 [3, 4]: 24.6 nM
Compound: CC#CCOc1ccc(S(=O)(=O)N[C@H](CCCNS(=O)(=O)c2cn(C)cn2)C(=O)NO)cc1 [Example 375, (2R)-2-({[4-(but-2-ynyloxy)Phenyl]sulfonyl}amino)-N-hydroxy-5-{[(1-methyl-1H-imidazol-4-yl)sulfonyl]amino}pentanamide]

IC50 [3, 4]: 21.9 nM
Compound: CC#CCOc1ccc(S(=O)(=O)N[C@H](CCCNC(=O)CN2CCOCC2)C(=O)NO)cc1 [Example 376, (2R)-2-({[4-(but-2-ynyloxy)Phenyl]sulfonyl}amino)-N-hydroxy-5-[(2-morpholin-4-ylacetyl)amino]pentanamide]

IC50 [3, 4]: 26.5 nM
Compound: CC#CCOc1ccc(S(=O)(=O)N[C@H](CCCNC(=O)CN2CCN(C)CC2)C(=O)NO)cc1 [Example 377, (2R)-2-({[4-(but-2-ynyloxy)Phenyl]sulfonyl}amino)-N-hydroxy-5-{[2-(4-methylpiperazin-1-yl)acetyl]amino}pentanamide]

IC50 [3, 4]: 22.8 nM
Compound: CC#CCOc1ccc(S(=O)(=O)N[C@H](CCCNC(=O)CNCc2ccccc2)C(=O)NO)cc1 [Example 378, (2R)-5-{[2-(Benzylamino)acetyl]amino}-2-({[4-(but-2-ynyloxy)phenyl]sulfonyl}amino)-N-hydroxypentanamide]

Compound: (2R)-2-({[4-(But-2-ynyloxy)phenyl]sulfonyl}amino)-5-{[2-(3,4-dichlorophenyl)acetyl]amino}-N-hydroxypentanamide [Example 336]
IC50 [3, 5]: 6.11 nM

Source: US6716833B2, “Acetylenic α-amino acid-based sulfonamide hydroxamic acid tace inhibitors” (priority 1999, dated 2004)
